This is an account of results in PMC3156243, “Properties and Crystal Structure of Methylenetetrahydrofolate Reductase from Thermus thermophilus HB8” (PLoS ONE, 2011).

In this assay the target is T1, MTHFR (methylenetetrahydrofolate reductase) (Thermus thermophilus, UniProt Q5SLG6).
T1 construct: gene TTHA0327
The experiment in a line: biochemical.

T1 sequence (Q5SLG6 1-296): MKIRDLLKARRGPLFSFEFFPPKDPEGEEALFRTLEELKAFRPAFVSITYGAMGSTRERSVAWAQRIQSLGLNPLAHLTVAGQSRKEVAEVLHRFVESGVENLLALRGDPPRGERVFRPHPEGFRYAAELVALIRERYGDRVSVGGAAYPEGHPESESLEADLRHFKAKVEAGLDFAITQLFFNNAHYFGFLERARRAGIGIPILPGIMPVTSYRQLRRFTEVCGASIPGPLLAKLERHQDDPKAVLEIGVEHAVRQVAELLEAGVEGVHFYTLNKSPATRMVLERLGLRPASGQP

For the compound `CN1c2c(nc(N)[nH]c2=O)NC[C@@H]1CNc1ccc(C(=O)N[C@@H](CCC(=O)O)C(=O)O)cc1` (mixture of isomers) [(6S)-5-CH3-H4folate], the Ki is 15 ± 6 µM.
